Where a name gives a salt, the structure may show the parent alone.
Experiments:
[1] = Pharmacokinetics study in mice (cassette); assay type: in vivo; settings: female, Balb/c, plasma, mouse cassette PK
From the text: (§1) Objective: To determine the drug concentration in the plasma of the mice at different times after intravenous and oral administration of the test compounds by LC/MS/MS using female Balb/c mice as the test animals. To investigate the pharmacokinetic performance of the test compounds in mice and to evaluate the pharmacokinetic characteristics.
Test animals: 4 healthy female Balb/c mice were divided into 2 groups according to the principle of similar weight, 2 in the IV group and 2 in the PO group. The animals were purchased from Shanghai Lingchang Biotechnology Co., Ltd.
(§2) IV group: Appropriate amounts of compounds were weighed respectively, prepared into 2 mg/mL solutions, then mixed to give a 0.5 mg/mL solution, which was stirred and ultrasonicated until a clear state. The vehicle was 15% HP-b-CD.
(§3) PO group: An appropriate amount of the IV group solution was taken and diluted to 0.4 mg/mL with 15% HP-b-CD.
(§4) Administration: After fasting overnight, the IV group was administered intravenously, and the dose of the test compound was 1 mg/kg; the PO group was administered intragastrically, and the dose of the test compound was 2 mg/kg.
(§5) Procedures: For IV group, 30 μL of blood was collected from the saphenous vein of the female Balb/c mice at 0.0833, 0.25, 0.5, 1, 2, 4, 8, and 24 hours post-dose, and placed in a commercial anticoagulant tube with EDTA-K2 added in advance. For PO group, 30 μL of blood was collected from the saphenous vein of the female Balb/c mice at 0.25, 0.5, 1, 2, 4, 8, 12 and 24 hours post-dose, and placed in a commercial anticoagulant tube with EDTA-K2 added in advance. The blood samples were centrifuged (3,200 g, 4° C., 10 minutes) to give plasma samples, which was transferred to a pre-cooled centrifuge tube, frozen in dry ice, and stored in an ultra-low temperature freezer at −60° C. or lower until the LC-MS/MS analysis. The animals were given free access to food 4 hours after the administration. LC/MS/MS method was used to determine the content of the test compounds in the plasma of mice after intravenous and oral administration. The linear range of the method is 2.00-2000 nM.

[2] = Metabolic stability in liver microsome (human); assay type: in vitro ADME, humans
Experimental: Objective: To determine the metabolic stability of test compounds in the liver microsomes of humans, CD-1 5 mice and SD rats (Corning Co., Ltd., Miaotong Biological Technology Co., Ltd., Miaotong Biological Technology Co., Ltd.).
Procedures: Firstly, eight 96-well plates were prepared, and named T0, T5, T10, T20, T30, T60, NCF60 and BLANK; except for BLANK (added with buffer at 10 μL/well), the plates were added with the solution of compounds at 10 μL/well. Prepared microsomes were added to the 7 plates (80 μL/well), except for the T0 10 plate. The NCF60 plate was added with the buffer at 10 μL/well, and incubated in a 37° C. water bath, and timing was started:
Prepared NADPH cofactor working solution was aliquoted into a 96-well shallow-well plate serving as a loading slot. Each plates was added with the solution to at 10 μL/well by a 96-channel pipette and incubated in a 37° C. water bath to start the reaction:
At each time point, termination solution (cold acetonitrile containing 100 ng/mL Tolbutamide and 100 ng/mL Labetalol as internal standard) was added at 300 μL/well to stop the reaction, and the mixture was mixed well; the mixture was centrifuged at 4000 rpm for 20 minutes to precipitate the protein; the supernatant was transferred at 100 μL/well to a new 96-well plate containing 300 μL/well of HPLC water with a 96-channel pipette, and the mixture was mixed well. […]

[3] = Pharmacokinetics study in rats (cassette); assay type: in vivo; settings: female, SD, plasma, rat cassette PK
From the text: as §1, with “Experimental objective:” for “Objective:”, “rats” for “mice”, “SD rats” for “Balb/c mice”
Test animals: 4 healthy female SD rats were divided into 2 groups according to according to the principle of similar weight, 2 in the IV group and 2 in the PO group. Animal used in this study were purchased from Beijing Vital River Laboratory Animal Technology Co., Ltd.
as §2, §3, §4
as §5, with “200” for “30”, “jugular” for “saphenous”, “SD rats” for “Balb/c mice”

[4] = iv, i.v. 1 mg/kg, read-out: Vdss

## CC/C(=C(/c1ccc(OCCNC/C=C/C(=O)N(C)C)nc1)c1[nH]c2ccccc2c1Cl)c1ccccc1 [Compound 3 monohydrochloride]
[1]; iv, i.v. 1 mg/kg
  AUC(0-t): 2.43 µM·h
  clearance: 12.9 mL/min/kg
  half-life: 3.37 h
[1]; [4]
  Vd: 3.46 L/kg
[1]; po, p.o. 2 mg/kg
  AUC(0-t): 1.27 µM·h
  Cmax: 224 nM
  Tmax: 0.25 h
  bioavailability: 26.1%
  half-life: 8.12 h
[2]
  Stability in liver microsomes: 43
[3]; iv, i.v. 1 mg/kg
  AUC(0-t): 3.55 µM·h
  clearance: 8.14 mL/min/kg
  half-life: 6.65 h
[3]; [4]
  Vd: 4.46 L/kg
[3]; po, p.o. 2 mg/kg
  AUC(0-t): 5.21 µM·h
  Cmax: 464 nM
  Tmax: 2 h
  bioavailability: 73.3%

From patent publication US12221432B2, “Estrogen receptor antagonist” (CHIA TAI TIANQING PHARMACEUTICAL GROUP CO., LTD., priority 2018, dated 2025)
